PMC3303619, “In Situ Absorption in Rat Intestinal Tract of Solid Dispersion of Annonaceous Acetogenins” (Gastroenterology Research and Practice, 2012)
Values after ≈ are worked out from the molar mass of the structure shown.

Legend:
[1] = Stability of sample solution during storing and preparation (freeze-thaw, room temperature, stock solution); assay type: physicochemical; conditions: for Accuracy (mean ± SD)%, Freeze-thaw (three cycles): three freeze (−20°C) and thaw (room temperature) cycles, compared to nominal concentration
Experimental: The stability of sample solution was also tested at room temperature and 4°C, respectively, for 24 h. For freeze-thaw stability testing, the samples were determined after three freeze (−20°C) and thaw (room temperature) cycles, and the concentration was compared to their nominal concentration. For the short-term stability, the samples (three replicates at each QC concentration) were extracted and placed at room temperature for 24 h and then injected into the HPLC system for analysis.
Stock solutions of ACGs were stable for at least 30 days when stored at 4°C. No significant change was found after three freeze-thaw cycles and stored at room temperature for 24 h (Table 1).

[2] = Solubility studies in distilled water; assay type: physicochemical; conditions: 37 °C, thermodynamic from solid, component from ACGs solid dispersion (PEG 4000), 37 ± 0.5°C
Experimental: Solubility studies were conducted by placing an excess amount of ACGs (approximately 15 mg) and ACG-solid dispersion in 10 mL distilled water, and the mixture was heated at 37 ± 0.5°C in a water bath to facilitate the solubilization using a vortex mixer. Mixtures were equilibrated at 37 ± 0.5°C for 72 h in a water bath. The equilibrated samples were centrifuged at 3000 rpm for 15 min to remove the undissolved material. The supernatant was determined by HPLC.

[3] = Stability of ACGs in K-R buffer solution; assay type: physicochemical; conditions: ACGs-SD in K-R buffer, 37°C, n = 3
Experimental: Exact amount of ACGs-SD was dissolved in K-R buffer solution at 37°C in water bath. Chermolin-1, annonacin, squamocin, and annonin-VI were determined at 0, 30, 60, 90, and 120 min to analysis the stability of ACGs in K-R buffer solution.

[4] = system: intestinal loop in rats; test: Single-pass intestinal perfusion (SPIP) in rats at different perfusate concentrations; assay type: in vivo, Sprague-Dawley rats; conditions: values are P app × 10^3, mean ± SD, n = 6
Experimental: We used male Sprague-Dawley rats weighing 250 ± 20 g for all perfusion studies. The drug solution was prepared by dispersing the ACGs-SD in the K-R buffer solution and installed in the cylinder, which was incubated in at 37°C water bath to maintain temperature.
The in situ SPIP experiment was conducted according to the previously published reports. Firstly, six male Sprague-Dawley rats were placed in respective cages and fasted overnight before the experiment with free access to water. Rats were anesthetized with an intraperitoneal injection of pentobarbital sodium (40 mg/Kg body weight, i.p. injection), restrained in a supine position, and kept at a body temperature of 37°C using infrared lamps.
Bile duct was ligated and the intestinal content was immediately washed away with 37°C saline solution at a flow rate of 5 mL/min, by cannulating polyethylene tubings (3.2 mm diameter) using a peristaltic pump (BT00-100 M, Baoding Longer Precision Pump Co., Ltd., China). The isolated segment, duodenum, jejunum, ileum, and colon were rinsed with physiological saline to clean any residual debris until the out flowing became colorless. Then, the intestinal loop was made by ligating both ends of the intestinal loop from 4 cm below the bile duct opening to a segment above the ileocecum of small intestine of anesthetized rats. Care was taken to handle the small intestine gently in order to maintain an intact blood supply. The whole surgical area was covered with a piece of sterilized gauze wetted with physiological saline solution.
ACGs-SD was dissolved in K-R buffer solution (0.35 g KCl, 1.37 g NaHCO3, 7.8 g NaCl, 0.22 g NaH2PO4, 0.02 g MgCl2, and glucose in 1.48 g/1000 mL purified water, pH 6.5) at a concentration of 200 μg/mL, 300 μg/mL, 500 μg/mL of ACGs, and the solution was administered to the loop via the polyethylene tubing inserted into the loop. At the start of the study, the perfusion buffer containing sample solution was first perfused at a flow rate of 5 mL/min to ensure filling the segment rapidly, and the time was set to zero with the immediate start of the perfusion and the solution volume in circulation was recorded as the 0 min volume. After 10 min, when steady-state condition was achieved, the flow rate was adjusted to 0.2 mL/min, and the outlet perfused samples were collected at time intervals (5, 10, 15, 30, 60, 90, 120 min) for 2 h. During 2 h perfusion period, at each time period, assemble the outlet solution. At the end of the experiment, the length of perfused intestinal segment was measured without stretching.
(§1) The effective permeability (K a, P app) of the drug disappearing from the intestinal lumen during the intestinal perfusion was calculated by the steady-state equation: (1) Ka =(1−CoutQout/CinQin)Q/VPapp=[− Qin·ln (CoutQout/CinQin)]/2πrL where the radius of the gut lumen was represented by r, its length by L, and the perfusate flow rate by Q (mL/min). V presents the volume of the tested intestinal. The fraction C out/C in represents the concentration of the drμg leaving the perfused segment (C out) normalized to the concentration entering the segment (C in). The C out values were corrected for net water flux by the gravimetric method.
(§2) Once the intestinal segment reached steady state, subsequent values of C out/C in were used to calculate P app. P app represents the permeability of the compound (cm/s) as determined by the disappearance of the compound from the intestinal lumen. Steady state was assumed to be reached when C out/C in reached a constant value, as determined by direct observation of the data.

[5] = system: duodenum, jejunum, ileum, and colon segment; test: SPIP in different intestinal segments; assay type: in vivo, Sprague-Dawley rats; conditions: 300 μg/mL, values are P app × 10^3, mean ± SD, n = 6
Description: The study followed the method described in Li et al. and Dahan and Amidon. Each 10 cm long intestinal segment was isolated as follows: duodenum segment beginning from 1 cm distal to pylorus, jejunum segment beginning from 15 cm away from pylorus, ileum segment beginning at the site 20 cm upwards caecum, while segment colon beginning at the site 2 cm distal to caecum. The above segments were carefully cannulated and ligated with both the ends. Then, each segment was perfused with solution containing different mass of ACGs.
as §1, §2

[6] = system: T24 bladder cancer cells; set-up: method as in PMID 16154156; conditions: cytotoxicity in a Bax- and caspase-3-related pathway; cited from earlier work
[7] = system: complex I; set-up: method as in PMID 8037664; conditions: mammalian mitochondria; steady-state and nonsteady-state conditions; cited from earlier work
[8] = system: K562 cells; set-up: method as in PMID 16310807; conditions: cited from earlier work
[9] = ACGs-SD perfusate concentration 200 μg · mL^−1
[10] = ACGs-SD perfusate concentration 300 μg · mL^−1
[11] = ACGs-SD perfusate concentration 500 μg · mL^−1

| SMILES | Accuracy (mean ± SD)%, Samples at room temperature for 24 h [1] | Accuracy (mean ± SD)%, Freeze-thaw (three cycles) [1] | solubility at 72 h [2] | Stability in K-R buffer solution, remaining ([3]; time 0 h) | Stability in K-R buffer solution, remaining ([3]; time 0.5 h) | Stability in K-R buffer solution, remaining ([3]; time 1 h) | Stability in K-R buffer solution, remaining ([3]; time 2 h) | P app × 10^3 [4, 9] | P app × 10^3 [4, 10] | P app × 10^3 [4, 11] | P app × 10^3 ([5]; Duodenum) | P app × 10^3 ([5]; Ileum) | P app × 10^3 ([5]; Jejunum) | P app × 10^3 ([5]; colon) | Effect on cell cycle of T24 bladder cancer cells [6] | Effect on proton pumping function of complex I [7] | Effect on proliferation of K562 cells [8] |
| --- | --- | --- | --- | --- | --- | --- | --- | --- | --- | --- | --- | --- | --- | --- | --- | --- | --- |
| CCCCCCCCCCCC[C@@H](O)[C@H]1CC[C@H]([C@H](O)CCCC[C@H](O)CCCCC[C@@H](O)CC2=CC(C)OC2=O)O1 (some centres unmarked) [Annonacin, annonacin] | 96.3 ± 2.1% | 96.0 ± 1.0% | 213 µg/mL (≈ 357 µM) | 100% | 98.63% | 98.59% | 96.16% | 1.29 ± 0.12 cm · s^−1 | 0.92 ± 0.23 cm · s^−1 | 0.69 ± 0.31 cm · s^−1 | 1.36 ± 0.34 cm · s^−1 | 1.17 ± 0.49 cm · s^−1 | 1.38 ± 0.82 cm · s^−1 | 0.95 ± 0.45 cm · s^−1 | arrest T24 bladder cancer cells at the G1 phase |  |  |
| CCCCCCCCCC[C@H](O)[C@H]1CC[C@H]([C@H]2CC[C@H]([C@H](O)CCCCCCCCCC[C@@H](O)CC3=C[C@H](C)OC3=O)O2)O1 [Annonin-VI, annonin-VI] | 98.3 ± 2.1% | 99.3 ± 5.0% | 250 µg/mL (≈ 401 µM) | 100% | 95.64% | 99.59% |  | 0.75 ± 0.37 cm · s^−1 | 0.75 ± 0.21 cm · s^−1 | 0.79 ± 0.30 cm · s^−1 | 2.28 ± 0.29 cm · s^−1 | 1.26 ± 0.30 cm · s^−1 | 1.87 ± 0.29 cm · s^−1 | 1.10 ± 0.45 cm · s^−1 |  | inhibited the proton pumping function of complex I |  |
| CCCCCC[C@H](O)CCC[C@H](O)[C@H]1CC[C@H]([C@H]2CC[C@H]([C@H](O)CCCCCCCCCCCCC3=C[C@H](C)OC3=O)O2)O1 [Squamocin, squamocin] | 101.3 ± 6.2% | 101.6 ± 4.2% | 1080 µg/mL (≈ 1740 µM) | 100% | 100.51% | 99.86% | 98.58% | 0.96 ± 0.28 cm · s^−1 | 0.96 ± 0.27 cm · s^−1 | 0.93 ± 0.32 cm · s^−1 | 1.24 ± 0.27 cm · s^−1 | 1.14 ± 0.31 cm · s^−1 | 1.30 ± 0.27 cm · s^−1 | 1.03 ± 0.19 cm · s^−1 |  |  | inhibit the proliferation of K562 cells via G2/M arrest |
